From paper PMC12013366, “In vitro evaluation of the immunogenic potential of gramicidin S and its photocontrolled analogues” (RSC Medicinal Chemistry, 2025)
Non-standard residues stand in square brackets, D forms with d. Residues, ends and D or L forms follow the SMILES beside them. Orn = NCCC[C@H](N)C(=O)O

Experiments:
[1] = tested on: HeLa spheroids; assay: Cytotoxicity, three-dimensional (spheroid) assay; type: cell-based; details: human
From the text: For the experiments with the three-dimensional (3D) cultures, we used a 384-well plate format and applied the protocol introduced by Sirenko et al.,[35] with a few modifications. First, we used the ultra-low adhesion plates to ensure reproducible spheroid formation. Second, we decided to co-stain the cells with calcein-AM to obtain more information on the processes occurring in spheroids upon the addition of cytolytic peptides. Calcein-AM stains metabolically active cells and helps to identify the fraction of necrotic cells that is essential for the accurate determination of the IC50 values (Fig. 3). Three time points of incubation of spheroids with the peptides (10 min, 24 h and 72 h) were chosen for the experiments. The IC50 values and the closed/open isomer activity ratios (Table 2) were calculated, as in the monolayer cell culture experiments.
Essential experimental details have been previously published by us.[79]
The cells were maintained identically to a 2D cell culture protocol. After counting, the cells were seeded in 50 μL of medium in an ultralow attachment U-bottom black-wall 384-well plate (3830, Corning). The seeding density was chosen to obtain spheroids after 48 h of incubation that are compact enough to fit into 20× objective field of view (<800–1000 μm in diameter) after incubation with compounds. We seeded 2000 cells per well for 4T1 and 1000 cells per well for HEK-293, HeLa, HepG2, LLC and MDA-MB-231. After seeding, the plate was centrifuged at 40 g for 30 s and additionally shaken at 250 rpm for 1 min to shake all the cells off the walls of a well. After 48 h, the compounds were dispensed in 20 μL of medium (500, 100, 50, 5 and 1 μM for closed peptide photoforms; 100, 50, 10, 1 and 0.5 μM for open photoforms and GS). At 10 min, 24 h and 72 h post addition of compounds, the staining solution consisting of 112.5 μM of Hoechst 33342, 4.5 μM of calcein-AM (C1430, Thermo Fisher), 13.5 μM of propidium iodide and 10% of FBS in DPBS was added in 20 μL for 2 h. The fluorescent imaging was conducted in the confocal mode with a 20× objective lens and z-stack of 12–15 images with a 10 μm step. The collected data were processed using INCarta 1.13 and analyzed using GraphPad Prism 10.

[2] = tested on: calreticulin (CALR) on MDA-MB-231 cells; assay: CALR exposure on the cell surface, fluorescence microscopy; type: cell-based, human; details: MDA-MB-231 monolayer; 8 and 16 μM; 24 h; Alexa Fluor 647 anti-CALR antibody, normalized to non-treated cells; n=2
Protocol: (§1) We performed fluorescence microscopy using an Alexa Fluor 647 anti-CALR antibody for quantifying the CALR exposure on the surface of cells. Confluent monolayer 4T1, HeLa, HepG2 and MDA-MB-231 cell cultures were incubated with GS and GS-derived peptides for 24 h followed by fixation, staining with the antibody and microscopic observation. Using the images, we calculated the total levels of the fluorescence signal per cell in each sample. […] To examine the time dependence of the CALR exposure, cytofluorimetric experiments were conducted on the MDA-MB-231 cell line (Fig. 9) using an Alexa Fluor 647 anti-CALR antibody. In this experiment, 30 min, 3 h, 6 h and 24 h were the time points for monitoring the fraction of cells expressing CALR on their surface.
(§2) The cells were seeded (10 000 cells per well for 4T1; 20 000 cells per well for HeLa and MDA-MB-231; 30 000 cells per well for HepG2) in 200 μL of appropriate medium in a 96-well black-wall transparent-bottom plate (6055302, Revvity). After 24 h incubation, the medium was aspired and 100 μL of fresh medium was added. The compounds (64, 32, 16 and 8 μM for closed photoforms; 32, 16, 8 and 4 μM for open photoforms and GS) along with the negative (1% DMSO) control were prepared in DMEM and dispensed in 100 μL per well for 24 h. Then 50 μL of 20% paraformaldehyde (28908, Thermo Fisher) was added for 15 min for fixation. […]

[3] = tested on: calreticulin (CALR) on HepG2 cells; assay: as above; type: cell-based, human; details: HepG2 monolayer; 32 μM; 24 h; Alexa Fluor 647 anti-CALR antibody, normalized to non-treated cells; n=2
Protocol: as §1, §2

[4] = tested on: HMGB1 released by HepG2 cells; assay: HMGB1 release, bioluminescence immunoassay (Lumit HMGB1) in the supernatant; type: cell-based, human; details: 64 μM, n=3
Protocol: HMGB1 was quantified (using a calibration curve) by a bioluminescence assay in the supernatant.
For this, 25 000 cells per well of HepG2 were seeded in 200 μL of complete DMEM in a 96-well black-wall transparent-bottom plate (655090, Greiner). After 24 h, the medium was aspired, and 100 μL of DPBS was added for rinsing and then aspired. Then, 100 μL of Leibovitz L-15 medium that contained 10% FBS was added. After that, 2× concentrated solutions of tested compounds (64 and 8 μM, triplicates for each time point) were prepared in the same Leibovitz L-15 medium in an intermediate plate and dispensed in a volume of 100 μL to the cell-containing plate. The calibration curve was constructed using a HMGB1 stock solution (1000–0.24 ng mL^−1, 4-fold dilution, 7 points, n = 2) from Lumit HMGB1 (Human/Mouse) immunoassay kit (W6110, Promega) and dispensed in a 96-well white-wall transparent-bottom working plate (353377, Falcon). After 30 min, 3 h and 24 h, aliquots from the intermediate plate (tested compounds) were transferred to the working plate. […] The plate was shaken for 1 min and incubated for 1 h at room temperature. […] The luminescence signal was collected throughout the visible range (360–700 nm). The data were analyzed using GraphPad Prism 10.

[5] = tested on: calreticulin (CALR) on 4T1 cells; assay: CALR exposure on the cell surface, fluorescence microscopy; type: cell-based, murine; details: 4T1 monolayer; 8 and 16 μM; 24 h; Alexa Fluor 647 anti-CALR antibody, normalized to non-treated cells; n=2
Protocol: as §1, §2

Structure (SMILES): CC(C)C[C@@H]1NC(=O)[C@H](CCCN)NC(=O)[C@H](C(C)C)NC(=O)[C@@H]2CCCN2C(=O)[C@@H](Cc2ccccc2)NC(=O)[C@H](CC(C)C)NC(=O)[C@H](CCCN)NC(=O)[C@H](C(C)C)NC(=O)[C@@H]2CCCN2C(=O)[C@@H](Cc2ccccc2)NC1=O [Gramicidin S, gramicidin S] (cyclo(V[Orn]L[dF]PV[Orn]L[dF]P))
- IC50 ([1]; 10 min): 2900 ± 1500 nM
- IC50 ([1]; 24 h): 2900 ± 1600 nM
- increase of CALR exposure [2]: 3 fold
- enhancement in CALR exposure [3]: 4–7 fold
- HMGB1 detected in the supernatant ([4]; 30 min post-treatment, interpolated from calibration curve): 50 ng/mL
- HMGB1 detected in the supernatant ([4]; at 3 h, constant up to 24 h): 10 ng/mL
- increase of CALR exposure [5]: 3 fold
